Results reported in ChEMBL document CHEMBL3297727, “Endiandric acid analogues from Beilschmiedia ferruginea as dual inhibitors of Bcl-xL/Bak and Mcl-1/Bid interactions” (J Nat Prod, 2014).
Active and inactive are the calls of the source. No cut-off for these calls is given here.

How the values were obtained:
[1] = tested on: HCT-116; assay: Cytotoxicity against human HCT116 cells up to 50 uM after 72 hrs by resazurin-based fluorimetric assay; type: functional, cell-based
[2] = biological target: T1, Induced myeloid leukemia cell differentiation protein Mcl-1 (Homo sapiens, UniProt Q07820); assay: Displacement of fluorescein-labeled BID from His-tagged MCL-1 (unknown origin) at 100 uM after 1 hr by fluorescence polarization assay relative to control
[3] = Drug degradation assessed as conversion to ferrugineic acid F and ferrugineic acid G at 4 degC incubated under dark condition for 3 to 6 months; type: physicochemical
[4] = Drug degradation assessed as conversion to ferrugineic acid F and ferrugineic acid G under diffuse daylight condition at 25 degC for 1 month; type: physicochemical; settings: 730.5 h
[5] = tested on: K562; assay: Cytotoxicity against human K562 cells up to 50 uM after 72 hrs by resazurin-based fluorimetric assay; type: functional, cell-based
[6] = Drug degradation in DMSO assessed as autoxidation at 4 degC incubated under dark condition for 6 months; type: physicochemical; settings: 4383 h
[7] = biological target: T2, Bcl-2-like protein 1 (Homo sapiens, UniProt Q07817); assay: Displacement of fluorescein-labeled BAK from His-tagged BCL-XL (unknown origin) after 1 hr by fluorescence polarization assay
[8] = biological target: T2, Bcl-2-like protein 1; assay: Displacement of fluorescein-labeled BAK from His-tagged BCL-XL (unknown origin) at 100 uM after 1 hr by fluorescence polarization assay relative to control
[9] = Drug degradation assessed as conversion to ferrugineic acid H and ferrugineic acid I under diffuse daylight condition at 25 degC for 1 month; type: physicochemical; settings: 730.5 h
[10] = Drug degradation assessed as conversion to ferrugineic acid H and ferrugineic acid I at 4 degC incubated under dark condition for 3 to 6 months; type: physicochemical
[11] = biological target: T1, Induced myeloid leukemia cell differentiation protein Mcl-1; assay: Displacement of fluorescein-labeled BID from His-tagged MCL-1 (unknown origin) after 1 hr by fluorescence polarization assay
[12] = tested on: K562; assay: Cytotoxicity against human K562 cells after 72 hrs by resazurin-based fluorimetric assay; type: functional, cell-based; settings: K562, 72 h
[13] = Cytotoxicity against human HCT116 cells after 72 hrs by resazurin-based fluorimetric assay; type: functional, cell-based; settings: HCT-116, 72 h

T2 sequence (Q07817 whole entry): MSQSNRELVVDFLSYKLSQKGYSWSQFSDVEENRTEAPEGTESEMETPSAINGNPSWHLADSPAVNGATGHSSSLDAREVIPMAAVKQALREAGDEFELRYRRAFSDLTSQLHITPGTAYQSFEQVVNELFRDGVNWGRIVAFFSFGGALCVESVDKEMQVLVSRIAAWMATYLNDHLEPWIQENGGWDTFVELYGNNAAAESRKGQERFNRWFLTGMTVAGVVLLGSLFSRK
T1 sequence (Q07820 whole entry): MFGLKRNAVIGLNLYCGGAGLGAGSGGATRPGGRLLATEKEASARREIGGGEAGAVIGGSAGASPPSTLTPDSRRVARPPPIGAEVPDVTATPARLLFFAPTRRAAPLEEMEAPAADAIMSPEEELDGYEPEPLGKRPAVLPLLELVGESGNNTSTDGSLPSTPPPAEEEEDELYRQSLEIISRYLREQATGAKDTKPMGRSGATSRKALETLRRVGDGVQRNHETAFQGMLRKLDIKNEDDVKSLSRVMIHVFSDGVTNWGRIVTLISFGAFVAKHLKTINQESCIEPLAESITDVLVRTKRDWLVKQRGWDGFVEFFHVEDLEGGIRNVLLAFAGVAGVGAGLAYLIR

O=C(O)[C@@H]1C=C[C@@H]2C[C@H]3[C@H](CCCc4ccc(O)cc4)[C@H]4C=C[C@@H]1[C@@H]2[C@H]43 (relative stereo)
Activity [1]: inactive
inhibition [2]: 0%
Stability [3]: Unstable
Stability [4]: Unstable
Activity [5]: inactive
Stability [6]: Stable
Ki [7]: > 100 µM
inhibition [8]: 22%
Stability [9]: Unstable
Stability [10]: Unstable

O=C(O)[C@@H]1C=C[C@@H]2C[C@H]3[C@H](CCCCCc4ccc(O)cc4)[C@H]4C=C[C@@H]1[C@@H]2[C@H]43 (relative stereo)
Activity [1]: inactive
inhibition [2]: 85%
Stability [3]: Unstable
Stability [4]: Unstable
Activity [5]: inactive
Stability [6]: Stable
Ki [11]: 14 µM
Ki [7]: 19.2 µM
inhibition [8]: 60%
Stability [9]: Unstable
Stability [10]: Unstable

O=C(O)[C@@H]1C=C[C@@H]2C[C@H]3[C@H](CCCCCCCc4ccc(O)cc4)[C@H]4C=C[C@@H]1[C@@H]2[C@H]43 (relative stereo)
Activity [1]: inactive
inhibition [2]: 82%
Activity [5]: inactive
Stability [6]: Stable
Ki [11]: 13 µM
Ki [7]: 12.6 µM
inhibition [8]: 93%

O=C(O)[C@@H]1C=C[C@@H]2C[C@H]3[C@H](CCCc4ccc(O)c(O)c4)[C@H]4C=C[C@@H]1[C@@H]2[C@H]43 (relative stereo)
Activity [1]: inactive
inhibition [2]: 82%
Activity [5]: inactive
Stability [6]: Stable
Ki [11]: 5.2 µM
Ki [7]: > 100 µM
inhibition [8]: 39%

O=C(O)[C@@H]1C=C[C@@H]2C[C@H]3[C@H](CC/C=C/Cc4ccc(O)cc4)[C@H]4C=C[C@@H]1[C@@H]2[C@H]43 (relative stereo)
Activity [1]: inactive
inhibition [2]: 14%
Activity [5]: inactive
Stability [6]: Stable
inhibition [8]: 20%

O=C(O)/C=C/[C@H]1[C@H]2C=C[C@H]3[C@@H]1C[C@H]1[C@H](CCCc4ccc(O)cc4)[C@@H]2[C@@H]31 (relative stereo)
Activity [1]: inactive
inhibition [2]: 0%
Activity [5]: inactive
Ki [7]: > 100 µM
inhibition [8]: 22%

O=C(O)C1=CC(=O)[C@@H]2C[C@H]3[C@H](CCCc4ccc(O)cc4)[C@H]4C=C[C@@H]1[C@@H]2[C@H]43 (relative stereo)
Activity [1]: inactive
Activity [5]: inactive

O=C(O)C1=C[C@@H](O)[C@@H]2C[C@H]3[C@H](CCCc4ccc(O)cc4)[C@H]4C=C[C@@H]1[C@@H]2[C@H]43 (relative stereo)
Activity [1]: inactive
inhibition [2]: 0%
Activity [5]: inactive
inhibition [8]: 7%

O=C(O)C1=C[C@H](O)[C@@H]2C[C@H]3[C@H](CCCCCc4ccc(O)cc4)[C@H]4C=C[C@@H]1[C@@H]2[C@H]43 (relative stereo)
inhibition [2]: 3%

CCC1=C[C@@H]2CN(C1)Cc1c([nH]c3ccccc13)[C@@](C(=O)OC)(c1cc3c(cc1OC)N(C)[C@H]1[C@@](O)(C(=O)OC)[C@H](OC(C)=O)[C@]4(CC)C=CCN5CC[C@]31[C@@H]54)C2 [VINORELBINE]
IC50 [12]: 6 nM
IC50 [13]: 15 nM
